The source of these data is patent US9120774B2 (University of Kansas, priority 2009, dated 2015).

Where two headings read alike, the source gives them in different places.

The subject of experiment [1] is SkBr3 (Her2 overexpressing breast cancer cells). As to the kind of experiment: Anti-proliferation activity against SkBr3 cells (MTS/PMS). Type of experiment: cell-based. The settings on record: read-out: IC50, SKBr3. The procedure:
(§1) Upon completion of synthesis of library of compounds in Examples 23 and 24, the compounds were evaluated for anti-proliferative activity against SkBr3 (Her2 overexpressing breast cancer cells), MCF-7 (estrogen receptor positive breast cancer cells), HCT-116 (colon cancer cells characterized by wild-type p53), PL45 (pancreatic cancer cells), LNCaP (androgen sensitive prostate cancer cells) and PC-3 (androgen independent prostate cancer cells) cell lines.
(§2) Cells were maintained in a 1:1 mixture of Advanced DMEM/F12 (Gibco) supplemented with non-essential amino acids, L-glutamine (2 mM), streptomycin (500 ng/mL), penicillin (100 units/mL), and 10% FBS. Cells were grown to confluence in a humidified atmosphere (37° C., 5% CO2), seeded (2000/well, 100 μl) in 96-well plates, and allowed to attach overnight. Compound or GDA at varying concentrations in DMSO (1% DMSO final concentration) was added, and cells were returned to the incubator for 72 hours. At 72 hours, the number of viable cells was determined using an MTS/PMS cell proliferation kit (Promega) per the manufacturer's instructions. Cells incubated in 1% DMSO were used at 100% proliferation, and values were adjusted accordingly. IC50 values were calculated from separate experiments performed in triplicate using GraphPad Prism.
as §2, with “μg/mL),” for “ng/mL),”, “μL)” for “μl)”

Experiment [2] deals with MCF-7 (estrogen receptor positive breast cancer cells). The experiment is described as follows: Anti-proliferation activity against MCF-7 cells (MTS/PMS). It counts as cell-based. The procedure: as §1, §2
as §2, with “μg/mL),” for “ng/mL),”, “μL)” for “μl)”

The mark [3] stands for this setting: Homo sapiens, SK-BR-3, Table 18, modified furanose or pyranose noviose replacements.
Setting [4] is: Homo sapiens, MCF7, Table 18, modified furanose or pyranose noviose replacements, read-out: IC50, MCF7.
The mark [5] stands for this setting: Table 19, 7-oxyalkylamino and 7-oxypiperidinyl analogues.
Setting [6] is: Table 19, 7-oxyalkylamino and 7-oxypiperidinyl analogues, read-out: IC50, MCF-7.
The mark [7] stands for this setting: Homo sapiens, SK-BR-3, Table 19, 7-oxyalkylamino and 7-oxypiperidinyl analogues.
Setting [8] is: Homo sapiens, MCF7, Table 19, 7-oxyalkylamino and 7-oxypiperidinyl analogues, read-out: IC50, MCF-7.

For `CC(C)=CCc1cc(C(=O)Nc2cc3ccc(O[C@H]4OCC[C@@H](O)[C@H]4O)c(C)c3oc2=O)ccc1O` [16a, KU-425, N-(7-((2R,3R,4R)-3,4-dihydroxytetrahydro-2H-pyran-2-yloxy)-8-methyl-2-oxo-2H-chromen-3-yl)-4-hydroxy-3-(3-methylbut-2-enyl)benzamide], the IC50 in experiment [1] (setting [3]) was 10680 ± 50 nM; in experiment [2] (setting [4]), 10040 ± 30 nM.
On the same counts, the results for `CC(C)=CCc1cc(C(=O)Nc2cc3ccc(O[C@@H]4OCC[C@@H](O)[C@H]4O)c(C)c3oc2=O)ccc1O` [16b, KU-426, N-(7-((2S,3R,4R)-3,4-dihydroxytetrahydro-2H-pyran-2-yloxy)-8-methyl-2-oxo-2H-chromen-3-yl)-4-hydroxy-3-(3-methylbut-2-enyl)benzamide] are 6960 ± 60 nM and 13300 ± 210 nM.
On the same counts, the results for `CC(C)=CCc1cc(C(=O)Nc2cc3ccc(O[C@H]4OCCC[C@H]4O)c(C)c3oc2=O)ccc1O` [17a, KU-427, 4-Hydroxy-N-(7-((2R,3R)-3-hydroxytetrahydro-2H-pyran-2-yloxy)-8-methyl-2-oxo-2H-chromen-3-yl)-3-(3-methylbut-2-enyl)benzamide] are 7870 ± 40 nM and 6450 ± 130 nM.
On the same counts, the results for `CC(C)=CCc1cc(C(=O)Nc2cc3ccc(O[C@@H]4OCCC[C@H]4O)c(C)c3oc2=O)ccc1O` [17b, KU-428, 4-Hydroxy-N-(7-((2S,3R)-3-hydroxytetrahydro-2H-pyran-2-yloxy)-8-methyl-2-oxo-2H-chromen-3-yl)-3-(3-methylbut-2-enyl)benzamide] are 30000 ± 2070 nM and 10200 ± 210 nM.
As for `CC(C)=CCc1cc(C(=O)Nc2cc3ccc(O[C@H]4C[C@H](O)CCO4)c(C)c3oc2=O)ccc1O` [18a, KU-429, 4-Hydroxy-N-(7-((2S,4R)-4-hydroxytetrahydro-2H-pyran-2-yloxy)-8-methyl-2-oxo-2H-chromen-3-yl)-3-(3-methylbut-2-enyl)benzamide], the values for the half-inhibitory concentration (IC50) in experiment [1] (setting [3]) and in experiment [2] (setting [4]) were 5070 ± 230 nM and 1340 ± 180 nM, respectively.
Take `CC(=O)Oc1ccc(C(=O)Nc2cc3ccc(O[C@@H]4OC[C@H](O)[C@@H]4O)c(C)c3oc2=O)cc1CC=C(C)C` [19, KU-431, 4-(7-((2S,3S,4S)-3,4-Dihydroxytetrahydrofuran-2-yloxy)-8-methyl-2-oxo-2H-chromen-3-ylcarbamoyl)-2-(3-methylbut-2-enyl)phenyl acetate]: the IC50 in experiment [1] (setting [3]) came to 14400 ± 520 nM; in experiment [2] (setting [4]), 14300 ± 400 nM.
On the same counts, the results for `CC(=O)Oc1ccc(C(=O)Nc2cc3ccc(O[C@H]4C[C@@H](O)CO4)c(C)c3oc2=O)cc1CC=C(C)C` [20a, KU-432, 4-(7-((2S,4R)-4-Hydroxytetrahydrofuran-2-yloxy)-8-methyl-2-oxo-2H-chromen-3-ylcarbamoyl)-2-(3-methylbut-2-enyl)phenyl acetate] are 22200 ± 940 nM and over 100000 nM.
In the same order, the values of `CC(=O)Oc1ccc(C(=O)Nc2cc3ccc(O[C@@H]4C[C@@H](O)CO4)c(C)c3oc2=O)cc1CC=C(C)C` [20b, KU-433, 4-(7-((2R,4R)-4-Hydroxytetrahydrofuran-2-yloxy)-8-methyl-2-oxo-2H-chromen-3-ylcarbamoyl)-2-(3-methylbut-2-enyl)phenyl acetate] are 21500 ± 2280 nM and 22500 ± 400 nM.
On to `CC(=O)Oc1ccc(C(=O)Nc2cc3ccc(OC4CCN(C)CC4)c(C)c3oc2=O)cc1CC=C(C)C` [29a, KU-397, 4-(8-Methyl-7-(1-methylpiperidin-4-yloxy)-2-oxo-2H-chromen-3-ylcarbamoyl)-2-(3-methylbut-2-enyl)phenyl acetate], for which the concentration for half-maximal inhibition (IC50) in experiment [1] (setting [5]) was 1180 ± 200 nM.
Consider `CC(=O)Oc1ccc(C(=O)Nc2cc3ccc(OC4CCCN(C)C4)c(C)c3oc2=O)cc1CC=C(C)C` (centres unmarked) [29c, KU-417, 4-(8-Methyl-7-(1-methylpiperidin-3-yloxy)-2-oxo-2H-chromen-3-ylcarbamoyl)-2-(3-methylbut-2-enyl)phenyl acetate], for which the half-maximal inhibitory concentration (IC50) in experiment [1] (setting [5]) is 1570 ± 50 nM; in experiment [2] (setting [6]) it was 1420 ± 20 nM.
On the same counts, the results for `CC(=O)Oc1ccc(C(=O)Nc2cc3ccc(OCCN(C)C)c(C)c3oc2=O)cc1CC=C(C)C` [29e, KU-421, 4-(7-(2-(Dimethylamino)ethoxy)-8-methyl-2-oxo-2H-chromen-3-ylcarbamoyl)-2-(3-methylbut-2-enyl)phenyl acetate] are 4760 ± 520 nM and 1320 nM.
In the same order, the values of `CC(=O)Oc1ccc(C(=O)Nc2cc3ccc(OCCCN(C)C)c(C)c3oc2=O)cc1CC=C(C)C` [29f, KU-406, 4-(7-(3-(Dimethylamino)propoxy)-8-methyl-2-oxo-2H-chromen-3-ylcarbamoyl)-2-(3-methylbut-2-enyl)phenyl acetate] are 1180 ± 30 nM and 460 ± 190 nM.
On to `CC(=O)Oc1ccc(C(=O)Nc2cc3ccc(OC4CCNCC4)c(C)c3oc2=O)cc1CC=C(C)C` [30b, KU-415, 4-(8-methyl-2-oxo-7-(piperidin-4-yloxy)-2H-chromen-3-ylcarbamoyl)-2-(3-methylbut-2-enyl)phenyl acetate], for which the figures for the IC50 in experiment [1] (setting [5]) and in experiment [2] (setting [6]) were 1530 ± 140 nM and 770 ± 270 nM, respectively.
Turning to `CC(=O)Oc1ccc(C(=O)Nc2cc3ccc(OC4CCCNC4)c(C)c3oc2=O)cc1CC=C(C)C` (centres unmarked) [30d, KU-419, 4-(8-methyl-2-oxo-7-(piperidin-3-yloxy)-2H-chromen-3-ylcarbamoyl)-2-(3-methylbut-2-enyl)phenyl acetate], the concentration for half-maximal inhibition (IC50) in experiment [1] (setting [5]) turned out to be 1540 ± 110 nM; in experiment [2] (setting [6]), 1230 nM.
On the same counts, the results for `CNCCOc1ccc2cc(NC(=O)c3ccc(OC(C)=O)c(CC=C(C)C)c3)c(=O)oc2c1C` [30g, KU-423, 4-(8-methyl-7-(2-(methylamino)ethoxy)-2-oxo-2H-chromen-3-ylcarbamoyl)-2-(3-methylbut-2-enyl)phenyl acetate] are 2080 ± 130 nM and 910 ± 210 nM.
For the compound `CC(C)=CCc1cc(C(=O)Nc2cc3ccc(OC4CCN(C)CC4)c(C)c3oc2=O)ccc1O` [31a, KU-398, 4-Hydroxy-N-(8-methyl-7-(1-methylpiperidin-4-yloxy)-2-oxo-2H-chromen-3-yl)-3-(3-methylbut-2-enyl)benzamide], the IC50 in experiment [1] (setting [7]) was found to be 1090 ± 100 nM.
As to `CC(C)=CCc1cc(C(=O)Nc2cc3ccc(OC4CCNCC4)c(C)c3oc2=O)ccc1O` [31b, KU-416, 4-Hydroxy-N-(8-methyl-2-oxo-7-(piperidin-4-yloxy)-2H-chromen-3-yl)-3-(3-methylbut-2-enyl)benzamide], the 50% inhibitory concentration (IC50) in experiment [1] (setting [7]) was 850 ± 90 nM; in experiment [2] (setting [8]), 470 ± 100 nM.
In the same order, the values of `CC(C)=CCc1cc(C(=O)Nc2cc3ccc(OC4CCCN(C)C4)c(C)c3oc2=O)ccc1O` (centres unmarked) [31c, KU-418, 4-Hydroxy-N-(8-methyl-7-(1-methylpiperidin-3-yloxy)-2-oxo-2H-chromen-3-yl)-3-(3-methylbut-2-enyl)benzamide] are 10100 ± 170 nM and 4690 ± 160 nM.
In the same order, the values of `CC(C)=CCc1cc(C(=O)Nc2cc3ccc(OC4CCCNC4)c(C)c3oc2=O)ccc1O` (centres unmarked) [31d, KU-420, 4-Hydroxy-N-(8-methyl-2-oxo-7-(piperidin-3-yloxy)-2H-chromen-3-yl)-3-(3-methylbut-2-enyl)benzamide] are 2110 ± 580 nM and 790 ± 110 nM.
On the same counts, the results for `CC(C)=CCc1cc(C(=O)Nc2cc3ccc(OCCN(C)C)c(C)c3oc2=O)ccc1O` [31e, KU-422, N-(7-(2-(Dimethylamino)ethoxy)-8-methyl-2-oxo-2H-chromen-3-yl)-4-hydroxy-3-(3-methylbut-2-enyl)benzamide] are 52700 nM and 9450 ± 220 nM.
Turning to `CC(C)=CCc1cc(C(=O)Nc2cc3ccc(OCCCN(C)C)c(C)c3oc2=O)ccc1O` [31f, KU-407, N-(7-(3-(Dimethylamino)propoxy)-8-methyl-2-oxo-2H-chromen-3-yl)-4-hydroxy-3-(3-methylbut-2-enyl)benzamide], the concentration for half-maximal inhibition (IC50) stood at 1350 ± 380 nM in experiment [1] (setting [7]) and 440 ± 20 nM in experiment [2] (setting [8]).
On the same counts, the results for `CNCCOc1ccc2cc(NC(=O)c3ccc(O)c(CC=C(C)C)c3)c(=O)oc2c1C` [31g, KU-424, 4-Hydroxy-N-(8-methyl-7-(2-(methylamino)ethoxy)-2-oxo-2H-chromen-3-yl)-3-(3-methylbut-2-enyl)benzamide] are 1330 ± 10 nM and 750 ± 120 nM.
For the compound `Cc1c(OC2CCN(C)CC2)ccc2cc(NC(=O)c3cc4cc(Cl)ccc4[nH]3)c(=O)oc12` [KU-380], the IC50 in experiment [1] (Homo sapiens, SK-BR-3, Table 21, substituted indole-2-carboxamide analogues with noviose replacements) worked out at 350 ± 210 nM; in experiment [2] (Homo sapiens, MCF7, Table 21, substituted indole-2-carboxamide analogues with noviose replacements, read-out: IC50, MCF-7), 90 ± 30 nM.
